Experimental data reported in patent publication US7223792B2, “Cytotoxic annonaceous acetogenins from Annona muricata” (Advpharma Inc., priority 2001, dated 2007).
Values after ≈ are worked out from the molar mass of the structure shown. Where two headings read alike, the source gives them in different places.

How the values were obtained:
Hep G2 = assay: three days cytotoxicity bioassay against Hep G2; details: for Cytotoxicity IC50 Hep G2: human hepatoma cell line Hep G2, three days bioassay; for IC50: Homo sapiens, HepG2, 72 h, read-out: Cytotoxicity IC50 Hep G2
2,2,15 = assay: three days cytotoxicity bioassay against 2,2,15; format: cell-based, human; details: for IC50: 72 h, read-out: Cytotoxicity IC50 2,2,15
From the text: Adriamycin was used as a standard.

[1] = human hepatoma cell line 2,2,15, three days bioassay

Row | Molecule | Cytotoxicity IC50 Hep G2 (Hep G2) | Cytotoxicity IC50 2,2,15 (2,2,15; [1]) | IC50 (Hep G2) | further results
1 | CCCCCCCC(O)C(O)CC[C@H](O)[C@@H]1CC[C@@H](CCCCCCCCCC[C@@H](O)CC2=C[C@H](C)OC2=O)O1 (some centres unmarked) [Muricin D (4), Muricin D] | 0.00066 µg/mL | 0.048 µg/mL |  | 
2 | CCCCCC(O)C(O)CCCCCC[C@H](O)[C@@H]1CC[C@H](CCCCCCCCCC[C@H](O)CC2=C[C@H](C)OC2=O)O1 (some centres unmarked) [Muricin B (2), Muricin B] | 1.78 µg/mL | 0.00429 µg/mL |  | 
3 | CCCCCCCCCCCCCC[C@@H](O)[C@H]1CC[C@H]([C@H](O)CC[C@H](O)CCCCCCCC2=C[C@H](C)OC2=O)O1 [Longifolicin (10), Longifolicin, reference compound] |  |  | 0.000404 µg/mL (≈ 0.000695 µM) | IC50 (2,2,15; [1]): 0.0049 µg/mL (≈ 0.00844 µM)
4 | CCCCCC(O)C(O)CCCCCC[C@@H](O)[C@H]1CC[C@H](CCCCCCCCCC[C@@H](O)CC2=C[C@H](C)OC2=O)O1 (some centres unmarked) [Muricin A (1), Muricin A] | 5.04 µg/mL | 0.00513 µg/mL |  | times more potent than muricin B against Hep G2 (Hep G2; muricin A (4R-OH) compared with muricin B (4S-OH), Hep G2): 2.5 times
5 | CCCCCCCCCCCC[C@@H](O)[C@H]1CC[C@@H]([C@@H](O)CCCCC(=O)CCCCCCCC2=C[C@H](C)OC2=O)O1 [Corossolone (12), Corossolone, reference compound] |  |  | 0.48 µg/mL (≈ 0.829 µM) | IC50 (2,2,15; Homo sapiens): 0.284 µg/mL (≈ 0.491 µM)
6 | Corossolin [Corossolin (11), reference compound] |  | 0.234 µg/mL |  | 
7 | CCCCCCCC(O)C(O)CC[C@H](O)[C@@H]1CC[C@H](CCCCCCCCCCCC[C@@H](O)CC2=C[C@H](C)OC2=O)O1 (some centres unmarked) [Muricin C (3), Muricin C] | 0.499 µg/mL | 0.00387 µg/mL |  | 
8 | CCCCC(O)C(O)C/C=C\CC[C@H](O)[C@@H]1CC[C@@H](CCCCCCCCCCCC[C@@H](O)CC2=C[C@H](C)OC2=O)O1 (some centres unmarked) [Muricin F (6), Muricin F] | 0.0428 µg/mL | 0.00386 µg/mL |  | cytotoxicity compared with muricin C against Hep G2 (Hep G2; comparison in words, Hep G2): more cytotoxic than muricin C; cytotoxicity compared with muricin C against 2,2,15 (2,2,15; comparison in words, 2,2,15): more cytotoxic than muricin C
9 | COc1cccc2c1C(=O)c1c(O)c3c(c(O)c1C2=O)C[C@@](O)(C(=O)CO)C[C@@H]3O[C@H]1C[C@H](N)[C@H](O)[C@H](C)O1 [Adriamycin, reference compound] |  |  | 0.241 µg/mL (≈ 0.443 µM) | IC50 (2,2,15; [1]): 0.45 µg/mL (≈ 0.828 µM)
